From patent US8193361B2, “I-alkynyl 2-aryloxyalkylamides and their use as fungicides” (Syngenta Limited, priority 2004, dated 2012)

Assays:
[1] = system: Puccinia recondita f. sp. tritici; test: Leaf disk assay, Puccinia recondita f. sp. tritici (wheat brown rust), preventive; type: in vivo; conditions: 200 ppm; wheat leaf segments; assessed nine days after inoculation
Description: The compounds were tested in a leaf disk assay, with methods described below. The test compounds were dissolved in DMSO and diluted into water to 200 ppm. In the case of the test on Pythium ultimum, they were dissolved in DMSO and diluted into water to 20 ppm.
Erysiphe graminis f. sp. hordei (barley powdery mildew): Barley leaf segments were placed on agar in a 24-well plate and sprayed with a solution of the test compound. After allowing to dry completely, for between 12 and 24 hours, the leaf disks were inoculated with a spore suspension of the fungus. After appropriate incubation the activity of a compound was assessed four days after inoculation as preventive fungicidal activity. Erysiphe graminis f. sp. tritici (wheat powdery mildew): Wheat leaf segments were placed on agar in a 24-well plate and sprayed with a solution of the test compound. After allowing to dry completely, for between 12 and 24 hours, the leaf disks were inoculated with a spore suspension of the fungus. After appropriate incubation the activity of a compound was assessed four days after inoculation as preventive fungicidal activity. […] After appropriate incubation the activity of a compound was assessed nine days after inoculation as preventive fungicidal activity. […] After appropriate incubation the activity of a compound was assessed four days after inoculation as preventive fungicidal activity.

Pyricularia oryzae = type: in vivo; conditions: 200 ppm; rice leaf segments; assessed four days after inoculation

| SMILES | control of fungal infection [1] | control of fungal infection (Pyricularia oryzae) |
| --- | --- | --- |
| C#CC(C)(C)NC(=O)C(Oc1ccc2oc3ccccc3c2c1)SC (centres unmarked) [1 (16)] | at least 60% | – |
| CC#CC(C)(C)NC(=O)C(Oc1ccc2oc3ccccc3c2c1)SC (centres unmarked) [4 (16), 2-(dibenzofuranyl-2-oxy)-2-methylthio-N-(2-methylpent-3-yn-2-yl)acetamide] | – | at least 60% |
